From ChEMBL document CHEMBL1141678 (Eur J Med Chem, 2008)

Legend:
Cytochrome P450 2B6 [1] = target: T1, Cytochrome P450 2B6 (Homo sapiens, UniProt P20813); experiment: Inhibition of human recombinant CYP2B6; assay type: ADME
T1 sequence (P20813 whole entry): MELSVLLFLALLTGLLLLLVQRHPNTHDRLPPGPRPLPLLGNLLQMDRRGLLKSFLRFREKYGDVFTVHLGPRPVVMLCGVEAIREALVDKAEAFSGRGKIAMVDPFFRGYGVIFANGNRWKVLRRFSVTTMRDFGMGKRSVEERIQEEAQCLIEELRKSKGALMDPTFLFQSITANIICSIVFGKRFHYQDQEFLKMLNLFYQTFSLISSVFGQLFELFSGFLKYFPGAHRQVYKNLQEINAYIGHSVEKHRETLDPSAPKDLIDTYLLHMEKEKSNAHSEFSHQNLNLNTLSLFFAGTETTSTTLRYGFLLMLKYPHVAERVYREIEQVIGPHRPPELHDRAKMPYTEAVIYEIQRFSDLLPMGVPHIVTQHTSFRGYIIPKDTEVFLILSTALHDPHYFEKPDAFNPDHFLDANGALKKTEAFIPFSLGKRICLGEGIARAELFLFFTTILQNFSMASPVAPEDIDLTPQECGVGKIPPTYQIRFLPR

Cytochrome P450 1A2 = target: T2, Cytochrome P450 1A2 (Homo sapiens, UniProt P05177); experiment: Inhibition of human recombinant CYP1A2; conditions: for log(1/IC50): human
T2 sequence (P05177 whole entry): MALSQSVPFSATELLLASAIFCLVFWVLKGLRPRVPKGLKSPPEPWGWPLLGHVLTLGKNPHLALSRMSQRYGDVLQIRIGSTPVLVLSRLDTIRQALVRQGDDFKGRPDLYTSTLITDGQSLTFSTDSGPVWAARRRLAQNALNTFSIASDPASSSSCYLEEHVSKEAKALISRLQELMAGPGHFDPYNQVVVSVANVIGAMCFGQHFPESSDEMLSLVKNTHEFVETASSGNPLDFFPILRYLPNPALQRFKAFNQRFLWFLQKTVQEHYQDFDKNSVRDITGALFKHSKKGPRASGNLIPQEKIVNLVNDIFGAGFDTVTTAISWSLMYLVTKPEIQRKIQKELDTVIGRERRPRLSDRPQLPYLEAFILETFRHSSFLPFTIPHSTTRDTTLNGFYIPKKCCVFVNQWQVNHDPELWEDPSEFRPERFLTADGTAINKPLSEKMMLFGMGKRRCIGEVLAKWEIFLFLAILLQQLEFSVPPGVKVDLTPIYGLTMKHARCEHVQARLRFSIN

Cytochrome P450 2C9 [2] = target: T3, Cytochrome P450 2C9 (Homo sapiens, UniProt P11712); experiment: Inhibition of human recombinant CYP2C9; assay type: ADME
T3 sequence (P11712 whole entry): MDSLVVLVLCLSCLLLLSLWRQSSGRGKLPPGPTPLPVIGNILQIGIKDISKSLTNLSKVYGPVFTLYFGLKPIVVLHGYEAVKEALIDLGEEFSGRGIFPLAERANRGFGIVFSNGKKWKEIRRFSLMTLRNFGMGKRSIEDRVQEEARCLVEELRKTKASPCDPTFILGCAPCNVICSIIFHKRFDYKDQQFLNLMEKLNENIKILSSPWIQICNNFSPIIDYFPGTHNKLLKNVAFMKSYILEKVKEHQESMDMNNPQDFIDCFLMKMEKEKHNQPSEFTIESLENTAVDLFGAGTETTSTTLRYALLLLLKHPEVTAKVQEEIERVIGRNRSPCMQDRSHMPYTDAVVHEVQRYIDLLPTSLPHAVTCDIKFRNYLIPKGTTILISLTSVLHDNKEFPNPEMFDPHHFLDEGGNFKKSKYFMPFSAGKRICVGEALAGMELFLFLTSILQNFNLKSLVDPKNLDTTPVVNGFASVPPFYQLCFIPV

Cytochrome P450 3A4 [3] = target: T4, Cytochrome P450 3A4 (Homo sapiens, UniProt P08684); experiment: Inhibition of human recombinant CYP3A4 in presence of reduced glutathione; assay type: ADME; conditions: recombinant enzyme
T4 sequence (P08684 whole entry): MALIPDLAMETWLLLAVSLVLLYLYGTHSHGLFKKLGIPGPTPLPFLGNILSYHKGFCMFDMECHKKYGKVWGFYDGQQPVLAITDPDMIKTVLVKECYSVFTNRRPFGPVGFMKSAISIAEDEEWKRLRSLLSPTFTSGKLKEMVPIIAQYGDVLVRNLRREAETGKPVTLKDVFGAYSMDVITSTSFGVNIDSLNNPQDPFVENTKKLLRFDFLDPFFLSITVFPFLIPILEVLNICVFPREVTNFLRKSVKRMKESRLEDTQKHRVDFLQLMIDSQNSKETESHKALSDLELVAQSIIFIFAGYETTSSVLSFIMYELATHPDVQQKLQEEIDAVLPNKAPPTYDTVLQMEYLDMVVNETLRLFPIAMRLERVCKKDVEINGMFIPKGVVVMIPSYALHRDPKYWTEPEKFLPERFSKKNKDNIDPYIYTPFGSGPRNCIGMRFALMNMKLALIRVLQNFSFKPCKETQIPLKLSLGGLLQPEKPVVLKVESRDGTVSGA

Cytochrome P450 3A4 [4] = target: T4, Cytochrome P450 3A4; experiment: Inhibition of human recombinant CYP3A4; assay type: ADME
Cytochrome P450 2D6 [5] = target: T5, Cytochrome P450 2D6 (Homo sapiens, UniProt P10635); experiment: Inhibition of human recombinant CYP2D6 in presence of reduced glutathione; assay type: ADME; conditions: recombinant enzyme
T5 sequence (P10635 whole entry): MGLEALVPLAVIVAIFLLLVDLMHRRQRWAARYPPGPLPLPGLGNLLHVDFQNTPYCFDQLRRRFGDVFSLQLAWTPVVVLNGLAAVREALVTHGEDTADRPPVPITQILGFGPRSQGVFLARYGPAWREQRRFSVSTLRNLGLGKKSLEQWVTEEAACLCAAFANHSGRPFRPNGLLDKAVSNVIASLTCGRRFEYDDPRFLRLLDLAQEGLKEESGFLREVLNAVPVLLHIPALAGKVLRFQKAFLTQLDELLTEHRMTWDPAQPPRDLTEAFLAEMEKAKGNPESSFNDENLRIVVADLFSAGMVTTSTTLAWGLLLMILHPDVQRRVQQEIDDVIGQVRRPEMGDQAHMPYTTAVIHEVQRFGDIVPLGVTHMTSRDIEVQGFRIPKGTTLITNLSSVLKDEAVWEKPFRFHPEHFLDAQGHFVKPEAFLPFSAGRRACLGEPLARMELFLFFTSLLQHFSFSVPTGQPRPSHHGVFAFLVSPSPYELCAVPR

Cytochrome P450 2D6 [6] = target: T5, Cytochrome P450 2D6; experiment: Inhibition of human recombinant CYP2D6; assay type: ADME
Cytochrome P450 2C9 [7] = target: T3, Cytochrome P450 2C9; experiment: Inhibition of human recombinant CYP2C9 in presence of reduced glutathione; assay type: ADME; conditions: recombinant enzyme
CYP2B6 = target: T6, CYP2B6 (Homo sapiens, UniProt P20813); experiment: Inhibition of human recombinant CYP2B6 at 100 uM; assay type: ADME
T6 sequence (P20813 whole entry): T1 sequence (P20813 whole entry)

Cytochrome P450 2B6 [8] = target: T1, Cytochrome P450 2B6; experiment: Inhibition of human recombinant CYP2B6 in presence of reduced glutathione; assay type: ADME; conditions: recombinant enzyme

IC50 (Cytochrome P450 2B6 [1]) [µM] | IC50 (Cytochrome P450 1A2) [µM] | log(1/IC50) (Cytochrome P450 1A2; recombinant enzyme) [mM] | IC50 (Cytochrome P450 2C9 [2]) [µM] | Activity (Cytochrome P450 3A4 [3]) | IC50 (Cytochrome P450 3A4 [4]) [µM] | Activity (Cytochrome P450 2D6 [5]) | IC50 (Cytochrome P450 2D6 [6]) [µM] | Activity (Cytochrome P450 2C9 [7]) | inhibition at 100 µM (CYP2B6) [%] | Activity (Cytochrome P450 2B6 [8]) | log(1/IC50) (Cytochrome P450 1A2; recombinant CYP1A2) | Structure (SMILES)
24.8 | 75.2 | 1.124 | 59 | Not Active | 13.2 | Not Active | 82.7 | Not Active | > 20 | Not Active | – | COc1cc(/C=C/C(=O)/C=C/c2cc(OC)c(O)c(OC)c2)cc(OC)c1O
70 | – | – | – | Not Active | 38.3 | Not Active | – | Not Active | > 20 | Not Active | – | COc1cc(/C=C2\CC/C(=C\c3cc(OC)c(O)c(OC)c3)C2=O)cc(OC)c1O
44.8 | 30.4 | – | 62.8 | Not Active | 40.3 | Not Active | 13.2 | Not Active | > 20 | Not Active | 1.517 | Cc1cc(/C=C/C(=O)/C=C/c2cc(C)c(O)c(C)c2)cc(C)c1O
24.5 | 40 | – | – | – | 16.3 | – | 50.3 | – | – | – | – | COc1cc(/C=C/C(=O)CC(=O)/C=C/c2ccc(O)c(OC)c2)ccc1O [CURCUMIN]
– | 42.8 | – | 55 | Not Active | – | Not Active | 119 | Not Active | – | Not Active | 1.369 | CC(C)(C)c1cc(/C=C2\CC/C(=C\c3cc(C(C)(C)C)c(O)c(C(C)(C)C)c3)C2=O)cc(C(C)(C)C)c1O
